According to ChEMBL document CHEMBL5728227, “Substituted pyrazole derivatives as selective CDK12/13 inhibitors” (2021):

Target: Cyclin-dependent kinase 7 (Homo sapiens, UniProt P50613)
Experiment: Biochemical Assay for CDK7: The inhibitory activity of the test compounds was assessed by the LANCE TR-FRET assay, which detects the ATP-dependent phosphorylation of an ULight-myelin basic protein (MBP) substrate peptide (100 nM) by CDK7 (10 nM). Briefly, the enzyme reaction was run in reaction buffer (20 mM HEPES (pH 7.5), 10 mM MgCl2, 0.01% Triton x, 100 μM Sodium Orthovanadate, 1 mM DTT). The assay was performed in 384-well plate. The end concentration of the ATP substrate was 1 mM/100 μM, and that of the ULight-MBP substrate peptide was 100 nM, and of CDK7 was 10 nM. Pre-incubation of the compound and enzyme was performed for 60 min at room temperature. After 60 min incubation at room temperature, the reaction was terminated by the addition of 40 mM EDTA and 1 nM Eu-labeled anti-phospho-MBP-binding protein antibody in the buffer. Time-resolved fluorescence (excitation, 320 nm; emission donor, 615 nm; emission acceptor, 665 nm) was monitored by using 2030 multilabel reader Victor5 (PerkinElmer). The readout was calculated as (acceptor counts/donor counts)×1000. The IC50 values were derived by fitting a sigmoidal dose-response curve to a plot of assay readout over inhibitor concentration. All fits were computed with the program Prism 5.03 (Graph Pad Software, San Diego, Calif.).

Cyclin-dependent kinase 7, sequence (P50613 whole entry): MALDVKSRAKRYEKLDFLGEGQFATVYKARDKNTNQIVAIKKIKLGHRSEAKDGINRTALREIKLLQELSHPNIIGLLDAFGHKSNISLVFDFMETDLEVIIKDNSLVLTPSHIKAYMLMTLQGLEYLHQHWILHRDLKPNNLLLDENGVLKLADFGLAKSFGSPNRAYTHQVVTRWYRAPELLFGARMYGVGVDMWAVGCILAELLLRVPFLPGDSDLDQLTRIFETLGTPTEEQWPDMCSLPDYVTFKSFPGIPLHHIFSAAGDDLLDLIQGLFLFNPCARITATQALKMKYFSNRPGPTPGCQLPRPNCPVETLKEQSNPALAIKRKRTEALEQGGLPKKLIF

C=CC(=O)N1CCC=C(c2ccc(CC(=O)Nc3cc(C4CC4)[nH]n3)cn2)C1
IC50: 1730 nM
